{
  "source": "patent US20170327598A1",
  "about": "“SINGLE DOMAIN ANTIBODIES DIRECTED AGAINST INTRACELLULAR ANTIGENS” (SINGH MOLECULAR MEDICINE, LLC, priority 2014, published 2017)",
  "test_system": "L929 cells",
  "assay": "Percent toxicity of control wells in L929 cells",
  "assay_type": "cell-based, mouse",
  "details": "Actinomycin D only (no TNFα), sample replicates",
  "note": "“And” between values parts separate entries of the source, which are not always exact repeats. Identical values can stand only once. Numbered stars: 1 amine (or outer) side, 2 acyl side, 3 side chain; on linkers, the order of the positions; unused ones are H or OH. Bridge positions count the residues as written; N and C are the ends. Square brackets hold non-standard residues; d marks the D form. Peptide text beside a SMILES is read from it. I, II: the chains in the order shown. Actinocin(9to1) = Cc1c2oc3c(C)ccc(C(=O)[*:1])c3nc-2c(C(=O)[*:2])c(N)c1=O; NMeV = CN[C@H](C(=O)O)C(C)C; Sar = CNCC(=O)O",
  "data": [
    {"molecule": "Cc1c2oc3c(C)ccc(C(=O)N[C@@H]4C(=O)N[C@H](C(C)C)C(=O)N5CCC[C@H]5C(=O)N(C)CC(=O)N(C)[C@@H](C(C)C)C(=O)O[C@@H]4C)c3nc-2c(C(=O)N[C@@H]2C(=O)N[C@H](C(C)C)C(=O)N3CCC[C@H]3C(=O)N(C)CC(=O)N(C)[C@@H](C(C)C)C(=O)O[C@@H]2C)c(N)c1=O", "note": "[Actinomycin D] (I: T[dV]P[Sar][NMeV] / II: T[dV]P[Sar][NMeV]; ester I:1-I:C, II:1-II:C; linker I:N-II:N via Actinocin(9to1))", "values": [
      {"measurement": "% Toxicity", "setting": "Assay 1", "value": "18.6% and 5.4% and 2.3% and 3.5% and 0% (8×)"},
      {"measurement": "% Toxicity", "setting": "Assay 2", "value": "2.3% and 0% (4×) and 10.4% and 0.4%"}
    ]}
  ]
}
